This is an account of results in patent KR20210106935A, “암의 예방 또는 치료용 조성물” (연세대학교 산학협력단, priority 2019, dated 2021).

Assay [1] deals with FGFR signaling (e.g. PKC, MEK, p-ERK) (FGFR 시그널링). Description: FGFR signaling in young-patient-derived cancer cells. Type of assay: cell-based, human. The note with it: young-patient-derived cancer cell lines.
The test system of assay [2] is GSPY1 cells (Thyroid cancer; Papillary). Description: Cell proliferation IC50 (MTT), patient-derived papillary thyroid cancer cells GSPY1. Type of assay: cell-based. The conditions noted are these: Homo sapiens, PTC stage IV, mean ± SEM, read-out: cell proliferation IC50 - half maximal inhibitory concentration.
The subject of assay [3] is GSPO1 cells (Thyroid cancer; Papillary). Description: Cell proliferation IC50 (MTT), patient-derived papillary thyroid cancer cells GSPO1 (first line). The assay is classed as cell-based. The conditions noted are these: Homo sapiens, adult patient, by order of Table 3, PTC stage IV, mean ± SEM, read-out: cell proliferation IC50 - half maximal inhibitory concentration.
Assay [4] relates to cancer cells from young patients (어린 환자의 암 세포). Put plainly: Cell count over 7 days after drug treatment, young-patient papillary thyroid cancer cells. The assay is classed as cell-based, human. The note with it: unlike sorafenib, Figs. 4 to 7.
Assay [5] relates to GSPY2 cells (Thyroid cancer; Papillary). Put plainly: Cell proliferation IC50 (MTT), patient-derived papillary thyroid cancer cells GSPY2. The assay is classed as cell-based. The conditions noted are these: Homo sapiens, PTC stage IV, mean ± SEM, read-out: cell proliferation IC50 - half maximal inhibitory concentration.
Assay [6] has as its system GSPO1 cells (Thyroid cancer; Papillary). Description: Cell proliferation IC50 (MTT), patient-derived papillary thyroid cancer cells GSPO1 (second line of the same label). The assay is classed as cell-based. The conditions noted are these: Homo sapiens, adult patient, by order of Table 3, PTC stage IV, mean ± SEM, read-out: cell proliferation IC50 - half maximal inhibitory concentration.

Assay [7] concerns EMT protein (e.g. Snail, Zeb1) (EMT 단백질). Put plainly: EMT protein expression in young-patient-derived cancer cells. The conditions noted are these: young-patient-derived cancer cell lines. Type of assay: cell-based, human.

Take `CCN(CC)C(=S)SSC(=S)N(CC)CC` [Disulfiram, 디에틸카르바모티올설파닐 N,N-디에틸카르바모디티오에이트]: the “inhibition of FGFR signaling” value in assay [1] was “FGFR 시그널링(예를 들면, PKC, MEK, p-ERK 등)을 억제”. For the same compound, the IC50 in assay [2] was 0.305 µM; in assay [3], 0.22 µM; in assay [5], 0.304 µM; in assay [6] it was 0.21 µM. In addition, in assay [4], the “inhibition of cancer proliferation (cell number)” value was “어린 환자에게서 더 효과적으로 암의 증식을 억제하는 것을 확인할 수 있었다”. Moreover, the “effect on EMT protein expression” value in assay [7] is given as “EMT 단백질의 발현(예를 들면, Snail, Zeb1 등)을 억제(down-regulated)”.
As to `CNC(=O)c1cc(Oc2ccc(NC(=O)Nc3ccc(Cl)c(C(F)(F)F)c3)cc2)ccn1` [Sorafenib, 4-[4-[[[[4-클로로-3-(트리플루오르메틸)페닐]아미노]카르복실]아미노]페녹시]-N-메틸-2-피리딘카르복사미드], the IC50 in assay [2] was determined as 17.2 µM; in assay [3], 9.84 µM; in assay [5], 20.2 µM; in assay [6] it was 10.1 µM. For the same compound, the “effect on EMT protein expression” value in assay [7] is recorded as “FGFR을 기반으로 하는 EMT 단백질 발현에 영향을 주지 않는”.
